“Also recorded” adds a separate entry of the source.
Columns and labels:
EBC-1 = assay: Cell killing, EBC-1; assay type: cell-based, human; parameters: key: Sensitive; Resistant; details: EBC-1, NSCLC
Experimental: (§1) Briefly described, 2-3×10^3 cells/well in 100 μL of culture medium may be plated in 96 well plates and incubated overnight at 37° C., 5% CO2. The MET-ADCs, MET antibody(ies), control MMAE or control hIgG4 conjugated to MMAE with cysteine conjugation antibody(ies) may be diluted 1:3 in serum-free culture medium starting from 100 nM (final) in 50 μL as 3× concentrations to the HT-29 cells. At the end of an additional 5-6 days of cell growth at 37° C. in a humidified incubator with 5% CO2, the plates may be equilibrated to room temperature for 30 minutes and 100 μL/well of CellTiter-Glo® reagent (Promega Corp., Fitchburg, Wis.) may then be added to assess cell viability. Cell viability may be determined by measuring luminescence.
(§2) Various tumor cell lines and normal human cells may be tested for MET-ADC induced cell killing activity essentially as described above in Example 10 as assessed for MET receptor density. MET cell surface density was determined by indirect immunofluorescence staining of cell surface antigens on cultured cells using QIFIKIT (Dako). […] Following a forty-five minute incubation, cells may be incubated for 1 hour on ice with FITC conjugated antibody diluted 1:50 in FACS buffer. Then cells may be washed and receptor numbers may be determined by indirect immunofluorescence staining of the QIFIKIT beads using a Becton Dickinson LSRII flow cytometer.

Su.86.86 = assay: Cell killing, Su.86.86; assay type: cell-based, human; parameters: key: Sensitive; Resistant; details: Su.86.86, PANC Ca
Experimental: as §1, §2

RPTEC = assay: Cell killing, non-tumor RPTEC; assay type: cell-based, human; parameters: key: Sensitive; Resistant; details: renal proximal tubul cell
Experimental: as §1, §2

KP-4 xenograft = assay: KP-4 pancreatic cancer xenograft model; assay type: in vivo, mouse; details: vs control hIgG4-Lys-ADC
Experimental: (§3) Female athymic nude mice age 6- to 7-weeks old are available commercially, including from Harlan Laboratories (Indianapolis, Ind.). The mice are allowed to acclimate for one week and fed ad libitum on a normal low fat (4.5%) diet, which may be continued for the duration of the study. Tumor cells may be purchased from ATCC and may be cultured in cell culture media such as RPMI 1640 (Life Technologies) with L-glutamine, 25 mM HEPES supplemented with 10% FBS and 1 mM Na Pyruvate. Cells may be detached, washed with serum free medium and then resuspended at a final concentration of 50×10^6 cells/mL in serum free RPMI 1640. Tumor cells, approximately 5×10^6, may be injected subcutaneously in the rear flank of subject mice in a 1:1 mixture of serum free growth medium and Matrigel (Becton Dickinson, Bedford, Mass.). Tumor and body weight measurements may be performed twice weekly. Prior to treatment, mice can be randomized based on tumor size using a randomization algorithm. Treatments may be started when the average tumor volume reaches 100 mm^3. […]
(§4) MET-ADCs and control hIgG4-MMAE may be prepared in Phosphate Buffered Saline (PBS) prior to dose. Tumor size may be determined by caliper measurements. […] Log volume data can be analyzed with two-way repeated measures ANOVA by time and treatment using SAS PROC MIXED software (SAS Institutes Inc, Cary, N.C.). […]

Hs746T xenografts = assay: Hs746T gastric cancer xenograft model; assay type: in vivo, mouse; details: 3 mg/kg once per week for 4 weeks
Experimental: as §3, §4

OV79 = assay: Cell killing, OV79; assay type: cell-based, human; parameters: key: Sensitive; Resistant; details: OV79, Ovarian Ca
Experimental: as §1, §2

NCI-H292 = assay: Cell killing, NCI-H292; assay type: cell-based, human; parameters: key: Sensitive; Resistant; details: NCI-H292, NSCLC
Experimental: as §1, §2

BxPC-3 xenograft = assay: BxPC-3 pancreatic cancer xenograft model; assay type: in vivo, mouse; details: vs control hIgG4-Lys-ADC
Experimental: as §3, §4

CFPAC-1 = assay: Cell killing, CFPAC-1; assay type: cell-based, human; parameters: key: Sensitive; Resistant; details: CFPAC-1, PANC Ca
Experimental: as §1, §2

HPAF-II = assay: Cell killing, HPAF-II; assay type: cell-based, human; parameters: key: Sensitive; Resistant; details: PANC Ca
Experimental: as §1, §2

SNU-5 = assay: Cell killing, SNU-5; assay type: cell-based, human; parameters: key: Sensitive; Resistant; details: SNU-5, Gastric Ca
Experimental: as §1, §2

[1] = test system: pan-AKT phosphorylation (pAKT) in Caki-1 cells; assay: Phosphor-AKT bioassay for MET agonist activity in Caki-1 cells; assay type: cell-based; details: 5 μg/mL
Experimental: Because it has been reported that MET agonistic antibodies increased hepatocyte proliferation and toxicity, a phosphor-AKT assay may be used to test MET-ADCs for MET agonist activity. Briefly stated, Caki-1 cells may be starved overnight in serum-free medium with 0.1% BSA and then treated with ADCs or naked MET antibodies at 5 μg/mL for the desired durations. Cell lysates may be analyzed for phosphorylation of pan-AKT by MSD ELISA, for example.

[2] = test system: MET expressing tumor cells; assay: Correlation of tumor cell MET expression level and sensitivity to MET-ADC; assay type: cell-based
Experimental: as §1, §2

MiaPaca-2 = assay: Cell killing, MiaPaca-2; assay type: cell-based, human; parameters: key: Sensitive; Resistant; details: MiaPaca-2, PANC Ca
Experimental: as §1, §2

BxPC-3 = assay: Cell killing, BxPC-3; assay type: cell-based, human; parameters: key: Sensitive; Resistant; details: BxPC-3, PANC Ca
Experimental: as §1, §2

LS411N = assay: Cell killing, LS411N; assay type: cell-based, human; parameters: key to Sensitive/ Resistant: Sensitive; Resistant
Experimental: as §1, §2

HT-29 cells = assay: HT-29 cell-killing assay; assay type: cell-based, human; parameters: key to Sensitive/ Resistant: Sensitive; Resistant
Experimental: Therefore, the HT-29 cell line may be used to determine if test MET-ADCs can kill MET overexpressing tumor cells in vitro.
as §1, §2

MET-ADC#1: emibetuzumab lysine-conjugated via (2,5-dioxopyrrolidin-1-yl) 2-azidoacetate and Octyne-β-Glucn-MMAE
Sensitive/ Resistant (EBC-1): S
Sensitive/ Resistant (Su.86.86): R
Sensitive/ Resistant (RPTEC): R
anti-tumor activity (KP-4 xenograft): dramatic anti-tumor activity
antitumor efficacy (Hs746T xenografts): significantly greater antitumor efficacy than the IgG4 Lys-MMAE control treatments; also recorded: durable and complete tumor regression
Sensitive/ Resistant (OV79): S
Sensitive/ Resistant (NCI-H292): S
anti-tumor activity (BxPC-3 xenograft): dramatic anti-tumor activity
Sensitive/ Resistant (CFPAC-1): R
Sensitive/ Resistant (HPAF-II): S
Sensitive/ Resistant (SNU-5): S
MET agonist activity (induction of pan-AKT phosphorylation) [1]: same low to no agonist activity as its unconjugated parental antibody, emibetuzumab; also recorded: does not have increased agonist activity as compared with emibetuzumab
killing activity compared with MET-ADC #6 ([2]; similar experiments using other cells): superior killing activity than MET-ADC #6
approximate threshold of MET cell surface density for tumor cell killing ([2]; tumor cells sensitive to MMAE, not secreting HGF): > 32,000 receptor per cells
Sensitive/ Resistant (MiaPaca-2): R
Sensitive/ Resistant (BxPC-3): S
cell killing activity in LS411N cells (LS411N; LS411N (BRAF, PIK3) colon cancer cells): killed
Sensitive/ Resistant (LS411N; LS411N, Colorectal Ca): S
Sensitive/ Resistant (HT-29 cells; HT29, Colorectal Ca): S
cell killing activity in HT-29 cells (HT-29 cells; HT-29 cells): kills MET expressing HT-29 tumor cells better than the parental anti-MET antibody, emibetuzumab, free MMAE, or a combination of emibetuzumab and free MMAE; also recorded: highly potent in killing HT-29 cells
greater potency in killing HT-29 tumors cells as compared to ABBV-399 (HT-29 cells; HT-29 cells): 200 fold
